Experimental data reported in PubChem BioAssay AID624129 (Sanford-Burnham Center for Chemical Genomics, 2012).
Activity calls are given as the source filed them. How the calls were made is not given here.

Assays:
Assay in all cases: CXCR6 receptor antagonists, dose response, cell-based, beta-arrestin, DiscoveRx, APJ panel, uHTS hits (AID 624129)
[1] = biological target: Beta-galactosidase (Escherichia coli) (UniProt Q8VNN2); conditions: CXCR6 beta-arrestin (DiscoveRx) antagonist cell assay, b-galactosidase
Sequence of Beta-galactosidase (Escherichia coli) (Q8VNN2 whole entry, looked up): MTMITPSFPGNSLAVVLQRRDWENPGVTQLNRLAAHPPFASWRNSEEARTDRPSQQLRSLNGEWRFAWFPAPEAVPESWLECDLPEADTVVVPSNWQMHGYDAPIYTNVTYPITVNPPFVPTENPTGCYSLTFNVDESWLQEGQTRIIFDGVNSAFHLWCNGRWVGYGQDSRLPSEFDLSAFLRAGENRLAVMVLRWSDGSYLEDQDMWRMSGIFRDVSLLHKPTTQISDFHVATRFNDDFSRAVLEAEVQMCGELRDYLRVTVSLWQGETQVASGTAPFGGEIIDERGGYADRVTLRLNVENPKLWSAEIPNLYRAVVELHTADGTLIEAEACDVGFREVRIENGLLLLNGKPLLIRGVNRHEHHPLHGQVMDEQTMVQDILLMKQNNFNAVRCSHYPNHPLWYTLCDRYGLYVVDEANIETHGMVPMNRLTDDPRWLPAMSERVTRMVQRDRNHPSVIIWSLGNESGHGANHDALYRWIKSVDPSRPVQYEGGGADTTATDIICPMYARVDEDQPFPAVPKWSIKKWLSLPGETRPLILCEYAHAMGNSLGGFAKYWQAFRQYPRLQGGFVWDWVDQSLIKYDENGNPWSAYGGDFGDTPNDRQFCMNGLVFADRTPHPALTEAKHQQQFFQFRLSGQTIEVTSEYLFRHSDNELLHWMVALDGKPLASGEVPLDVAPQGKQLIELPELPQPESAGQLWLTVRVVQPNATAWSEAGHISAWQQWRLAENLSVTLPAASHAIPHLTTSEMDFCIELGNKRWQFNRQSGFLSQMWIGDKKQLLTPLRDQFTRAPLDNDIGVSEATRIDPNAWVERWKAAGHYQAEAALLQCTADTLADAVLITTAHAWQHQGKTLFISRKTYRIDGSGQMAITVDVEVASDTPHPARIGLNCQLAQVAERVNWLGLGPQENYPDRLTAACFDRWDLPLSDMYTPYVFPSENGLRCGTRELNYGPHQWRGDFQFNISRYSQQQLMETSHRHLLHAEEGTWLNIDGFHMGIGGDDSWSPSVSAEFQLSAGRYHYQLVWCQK

[2] = biological target: C-C chemokine receptor type 6 (Homo sapiens) (UniProt P51684); conditions: CXCR6 beta-arrestin (DiscoveRx) antagonist cell assay
[3] = biological target: Apelin receptor (Homo sapiens) (UniProt P35414); conditions: CXCR6 beta-arrestin (DiscoveRx) antagonist cell assay, APJ
[4] = biological target: C-X-C chemokine receptor type 6 (Homo sapiens) (UniProt O00574); conditions: CXCR6 beta-arrestin (DiscoveRx) antagonist cell assay; for inhibition: CXCR6, run 1, dose range 2, at 80 µM (top of the series)
Sequence of C-X-C chemokine receptor type 6 (Homo sapiens) (O00574 whole entry, looked up): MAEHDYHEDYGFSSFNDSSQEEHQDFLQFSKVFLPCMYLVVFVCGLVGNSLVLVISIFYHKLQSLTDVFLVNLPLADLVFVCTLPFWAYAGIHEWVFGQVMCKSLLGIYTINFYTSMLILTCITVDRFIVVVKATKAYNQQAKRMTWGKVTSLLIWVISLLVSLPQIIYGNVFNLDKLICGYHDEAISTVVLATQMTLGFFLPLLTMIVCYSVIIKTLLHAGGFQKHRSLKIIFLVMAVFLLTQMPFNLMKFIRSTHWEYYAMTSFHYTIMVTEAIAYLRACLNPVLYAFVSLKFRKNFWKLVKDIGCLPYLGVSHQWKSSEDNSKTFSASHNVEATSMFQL

[5] = dose range 1, mean IC50 across replicates
[6] = CCR6, dose range 1, mean IC50 across replicates
[7] = CXCR6, dose range 1, mean IC50 across replicates

| Compound | IC50 ([1]; dose range 1) | IC50 [1, 5] [µM] | IC50 ([2]; CCR6, dose range 1) [µM] | IC50 [2, 6] [µM] | IC50 ([2]; CCR6, run 2, dose range 1) [µM] | IC50 ([3]; dose range 1) [µM] | IC50 [3, 5] [µM] | IC50 ([3]; run 2, dose range 1) [µM] | IC50 ([3]; run 3, dose range 1) [µM] | IC50 ([4]; CXCR6, dose range 1) | IC50 [4, 7] [µM] | IC50 ([4]; CXCR6, run 1, dose range 2) [µM] | IC50 ([4]; CXCR6, run 2, dose range 1) [µM] | IC50 ([4]; CXCR6, run 2, dose range 2) [µM] | inhibition [4] [%] |
| --- | --- | --- | --- | --- | --- | --- | --- | --- | --- | --- | --- | --- | --- | --- | --- |
| Cc1ccsc1/C=C/c1ccc2cccc(O)c2n1 | > 80 µM (inactive) | > 80 | 5.29 | 6.51 | 7.72 | 6.75 | 7.71 | 9.69 | 6.7 | 6.32 µM | 5.47 | 3.12 | 8.63 | 3.82 | – |
| CCc1ccccc1OCC(=O)Nc1nc(-c2cccnc2)cs1 | > 80 µM (inactive) | > 80 | 6.24 | 6.97 | 7.7 | 8.5 | 12.5 | 12 | 17 | inactive | 11 | 7.82 | 16.8 | 8.73 | – |
| COc1ccc(C(=O)/C=C/C(=O)N(CC(=O)NC2CCCCC2)Cc2ccccc2)c(O)c1 | > 80 µM (inactive) | > 80 | – | > 80 | > 80 | – | > 80 | > 80 | > 80 | > 80 µM (inactive) | > 80 | – | > 80 | – | 9.34 |
| COc1ccc([N+](=O)[O-])c(S(=O)(=O)c2ccccc2)n1 | inactive | 50.7 | 22.6 | 19.5 | 16.5 | 21.5 | 22.9 | > 80 | 24.4 | inactive | 35.4 | – | 24.9 | – | 102 |
| CCS(=O)(=O)c1ncc(Cl)c(C(=O)Nc2ccc(S(=O)(=O)N3CCCC(C)C3)cc2)n1 (stereo unspecified) | > 80 µM (inactive) | > 80 | 6.92 | 7.16 | 7.39 | 9.3 | 8.75 | 8.93 | 8.02 | 9.52 µM | 9.06 | 7.57 | 10.3 | 8.84 | – |
| CCOc1ccc(N(CC(=O)N/N=C/c2ccccn2)S(=O)(=O)c2ccc(Cl)cc2)cc1 | > 80 µM (inactive) | > 80 | 11.4 | 12.7 | 13.9 | 14.4 | 14.2 | > 80 | 13.9 | inactive | 27.1 | 10.4 | 61.1 | 11.9 | – |
| CCC(=O)OCOc1ccc(/C=C2/CCC(CN(C)C)C2=O)cc1 (stereo unspecified) | > 80 µM (inactive) | > 80 | 10.3 | 11.1 | 11.9 | 17.2 | 16.8 | 15.2 | 17.9 | inactive | 12.6 | – | 10.2 | – | 124 |
| COc1cc(/C=C/c2ccc3cccc(O)c3n2)ccc1O | > 80 µM (inactive) | > 80 | 13 | 12.9 | 12.9 | 15.3 | 19.1 | 20.7 | 21.4 | inactive | 14.4 | – | 13.1 | – | 131 |
| CC(Oc1cccc(Cl)c1)C(=O)Nc1nc(-c2ccccn2)cs1 (stereo unspecified) | > 80 µM (inactive) | > 80 | 6.82 | 7.6 | 8.37 | 8.02 | 8.47 | 8.75 | 8.64 | 8.97 µM | 7.17 | 5.61 | 7.93 | 6.18 | – |
| CCC1CCCCN1S(=O)(=O)c1ccc(NC(=O)c2nc(S(C)(=O)=O)ncc2Cl)cc1 (stereo unspecified) | > 80 µM (inactive) | > 80 | 5.24 | 5.53 | 5.82 | 7.03 | 6.68 | 7.18 | 5.85 | 7.42 µM | 8.97 | 10.4 | 7.17 | 10.9 | – |
| CNc1cc(Cl)c2nonc2c1[N+](=O)[O-] | > 80 µM (inactive) | > 80 | 3.13 | 3.29 | 3.46 | 5.88 | 8.61 | 4.89 | 15.1 | 3.61 µM | 3.39 | 3.02 | 4.12 | 2.83 | – |
| COc1ccc(C2CC(c3c(O)n(CCc4ccccc4)c(=O)[nH]c3=O)=NN2)cc1OC (stereo unspecified) | inactive | 52 | 14.8 | 18 | 21.2 | 10.5 | 14.3 | 22.1 | 10.4 | inactive | 14.2 | 6.37 | 22.4 | 8.63 | – |
| O=c1oc2ccccc2c(Cl)c1CN1CCCCC1 | 25.6 µM | 25.6 | 5.59 | 6.07 | 6.55 | 13.2 | 17.9 | 21.6 | 18.9 | 7.83 µM | 7.76 | – | 7.68 | – | 125 |
| COCc1cc(=O)[nH]c(Nc2nc3ccc(C)cc3o2)n1 | > 80 µM (inactive) | > 80 | 3.97 | 4.52 | 5.08 | 4.2 | 7.6 | > 80 | 11 | – | 3.61 | 3.3 | > 80 | 3.93 | – |
| O=[N+]([O-])c1c(Nc2ccccc2O)cc(Cl)c2nonc12 | > 80 µM (inactive) | > 80 | 11.8 | 12.6 | 13.4 | 20 | 23.2 | 24.4 | 25.2 | inactive | 13 | – | 9.03 | – | 123 |
| C=C(CN(C)C)C(=O)c1ccc(C)cc1C | 48.2 µM | 48.2 | 26 | 29.1 | 32.3 | 51.6 | 39.5 | 39.9 | 27 | inactive | 45.6 | – | 25.5 | – | 90.5 |
| CCn1c(=O)c([N+](=O)[O-])c(Cl)c2ccccc21 | > 80 µM (inactive) | > 80 | 3.29 | 3.6 | 3.91 | 31.9 | 35.8 | 21.3 | 54.3 | 4.19 µM | 7.64 | 4.43 | 17.8 | 4.13 | – |
| Oc1cccc2ccc(/C=C/c3c(F)cccc3Cl)nc12 | > 80 µM (inactive) | > 80 | 5.94 | 5.8 | 5.66 | 6.69 | 15.4 | 11.2 | 28.2 | 6.4 µM | 5.43 | 3.78 | 6.67 | 4.85 | – |
| Cn1c(O)c(C2=NNC(c3ccc(Cl)cc3)C2)c(=O)n(C)c1=O (stereo unspecified) | 26.3 µM | 26.3 | 11.2 | 13.6 | 16 | 9.91 | 13.1 | 20 | 9.47 | inactive | 11.7 | 6.31 | 17 | 8.11 | – |
| COc1ccc(CN2C(=O)C(Cc3ccccc3)Nc3ncnc(N4CCN(c5ccccc5)CC4)c32)cc1 (stereo unspecified) | 7.82 µM | 7.82 | 4.6 | 4.33 | 4.05 | 6.61 | 9.3 | 9.95 | 11.3 | 8.37 µM | 5.48 | 3.14 | 4.54 | 5.88 | – |
| Cc1[nH][nH]c(=O)c1C(c1c(C)[nH][nH]c1=O)c1cn(Cc2ccc(F)cc2)c2ccccc12 | > 80 µM (inactive) | > 80 | 23 | 21.6 | 20.2 | 34.9 | 33.3 | 32.9 | 32 | inactive | 28.2 | – | 27.7 | – | 97.7 |
| COC(=O)C1=C(c2ccc(-c3ccccc3)c(F)c2)C[C@@H]2CC[C@H]1N2C(=O)N1CCC(C)CC1 | > 80 µM (inactive) | > 80 | 4.9 | 8.25 | 11.6 | 8.49 | 10.9 | 13.8 | 10.3 | inactive | 11.2 | – | 10.8 | – | 88 |
